These results are taken from US20240294467A1, “USP9X Inhibitors” (ProDeg, LLC, priority 2021, published 2024).

Some results are limits rather than exact numbers.

For the assay, the target named is USP9X (Homo sapiens (Human), UniProt Q93008). Kind of assay: USP9X enzyme activity assay, ubiquitin-rhodamine110 substrate. Conditions: for IC50: read-out: USP9X IC50/UM; for IC50 / USP9X IC50/UM: Table 8; for reduction of USP9X activity: higher concentrations of compound (>10 μM).
Chain of USP9X (Q93008 whole entry): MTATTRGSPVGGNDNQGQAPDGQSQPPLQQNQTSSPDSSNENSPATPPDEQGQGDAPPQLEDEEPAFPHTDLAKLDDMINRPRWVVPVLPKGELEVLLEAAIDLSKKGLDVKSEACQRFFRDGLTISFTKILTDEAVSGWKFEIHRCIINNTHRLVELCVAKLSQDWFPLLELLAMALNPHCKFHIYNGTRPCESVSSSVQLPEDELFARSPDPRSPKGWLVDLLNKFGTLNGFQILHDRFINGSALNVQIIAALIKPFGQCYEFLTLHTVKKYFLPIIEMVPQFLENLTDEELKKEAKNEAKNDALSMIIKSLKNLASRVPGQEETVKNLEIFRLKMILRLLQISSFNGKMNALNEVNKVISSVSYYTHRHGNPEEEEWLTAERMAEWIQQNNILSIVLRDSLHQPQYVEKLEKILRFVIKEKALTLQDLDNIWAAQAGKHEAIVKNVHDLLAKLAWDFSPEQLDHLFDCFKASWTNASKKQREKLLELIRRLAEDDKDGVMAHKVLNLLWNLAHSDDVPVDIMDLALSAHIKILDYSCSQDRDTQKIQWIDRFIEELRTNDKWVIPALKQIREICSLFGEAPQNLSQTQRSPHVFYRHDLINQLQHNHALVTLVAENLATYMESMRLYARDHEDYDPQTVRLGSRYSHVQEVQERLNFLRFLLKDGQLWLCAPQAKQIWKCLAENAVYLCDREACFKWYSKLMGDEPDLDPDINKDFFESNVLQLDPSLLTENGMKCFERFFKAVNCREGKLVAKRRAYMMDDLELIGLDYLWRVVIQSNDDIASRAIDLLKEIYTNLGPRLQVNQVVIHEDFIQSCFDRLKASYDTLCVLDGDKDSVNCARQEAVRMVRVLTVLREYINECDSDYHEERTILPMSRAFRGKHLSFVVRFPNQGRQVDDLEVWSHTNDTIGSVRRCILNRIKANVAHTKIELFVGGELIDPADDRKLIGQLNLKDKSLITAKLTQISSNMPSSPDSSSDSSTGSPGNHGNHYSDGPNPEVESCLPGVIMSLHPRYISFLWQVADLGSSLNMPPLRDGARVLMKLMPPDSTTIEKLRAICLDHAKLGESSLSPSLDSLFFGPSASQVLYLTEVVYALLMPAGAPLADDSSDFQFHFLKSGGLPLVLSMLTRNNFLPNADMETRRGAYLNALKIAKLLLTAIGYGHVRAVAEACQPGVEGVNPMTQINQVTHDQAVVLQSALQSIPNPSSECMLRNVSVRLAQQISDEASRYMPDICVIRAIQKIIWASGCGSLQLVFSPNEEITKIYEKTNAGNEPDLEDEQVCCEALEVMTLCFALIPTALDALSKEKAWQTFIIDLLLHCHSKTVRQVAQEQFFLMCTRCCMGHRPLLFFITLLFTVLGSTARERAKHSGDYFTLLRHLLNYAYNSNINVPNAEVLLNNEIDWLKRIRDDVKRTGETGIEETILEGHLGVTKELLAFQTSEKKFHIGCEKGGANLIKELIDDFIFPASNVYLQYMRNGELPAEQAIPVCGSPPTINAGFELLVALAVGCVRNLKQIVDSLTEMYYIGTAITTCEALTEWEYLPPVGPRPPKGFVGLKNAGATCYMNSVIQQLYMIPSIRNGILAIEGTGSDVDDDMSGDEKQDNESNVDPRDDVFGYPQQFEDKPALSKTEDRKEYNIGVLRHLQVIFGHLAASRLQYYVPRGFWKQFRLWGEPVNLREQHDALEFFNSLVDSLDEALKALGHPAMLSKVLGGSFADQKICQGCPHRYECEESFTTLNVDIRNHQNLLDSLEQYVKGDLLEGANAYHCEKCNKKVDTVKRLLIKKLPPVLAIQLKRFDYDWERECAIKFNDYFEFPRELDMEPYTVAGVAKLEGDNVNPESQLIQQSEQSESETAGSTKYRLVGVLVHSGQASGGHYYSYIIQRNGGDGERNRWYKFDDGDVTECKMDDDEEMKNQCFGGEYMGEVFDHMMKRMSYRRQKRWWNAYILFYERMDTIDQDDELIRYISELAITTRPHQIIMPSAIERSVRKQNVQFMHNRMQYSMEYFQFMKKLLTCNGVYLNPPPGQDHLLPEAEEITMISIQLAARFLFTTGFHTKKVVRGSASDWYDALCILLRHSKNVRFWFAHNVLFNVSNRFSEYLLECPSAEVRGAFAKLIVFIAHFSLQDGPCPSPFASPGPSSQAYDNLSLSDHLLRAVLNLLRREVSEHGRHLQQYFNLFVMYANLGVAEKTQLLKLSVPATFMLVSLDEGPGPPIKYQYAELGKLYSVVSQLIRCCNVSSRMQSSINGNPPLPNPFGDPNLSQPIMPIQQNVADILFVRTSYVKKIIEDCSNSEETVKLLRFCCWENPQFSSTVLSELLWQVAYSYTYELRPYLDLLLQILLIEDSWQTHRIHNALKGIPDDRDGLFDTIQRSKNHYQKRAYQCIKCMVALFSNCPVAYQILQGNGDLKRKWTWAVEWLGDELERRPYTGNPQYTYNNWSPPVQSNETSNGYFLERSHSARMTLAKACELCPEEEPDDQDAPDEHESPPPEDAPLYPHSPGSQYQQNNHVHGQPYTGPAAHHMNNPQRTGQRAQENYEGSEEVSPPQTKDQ

Method: The inhibition property of compound Compound 1A was evaluated in assays measuring the ability of USP9X to catalyze the hydrolysis of the amide bond between the C terminal carboxylate of ubiquitin and rhodamine110 of the fluorogenic substrate ubiquitin-rhodamine 110. To the wells of a 96 well reaction plate was added 12.5 μL USP9X solution (1.3 nM) in assay buffer (100 mM NaCl, 1 mM DTT, 0.1% bovine serum albumin, 0.05% Tween 20, 50 mM Tris, pH 7.5). 12.5 μL of Compound 1A in assay buffer (4×final concentration) was added to the wells containing the USP9X solution, and the solution was gently mixed by pipetting up and down several times. The plate was sealed and incubated at room temperature for 20 minutes.
Then 25 μL of the 1 μM substrate (ubiquitin-rhodaminel10) solution was added in assay buffer. The final substrate concentration was 0.5 μM. […] The slope for the rate of change of the fluorescence was determined and plotted vs the concentration of Compound 1A.
USP9X enzyme assays were set up in a 96 well plate to assess the abilities of Compound 3A and Compound 4A to inhibit the activity of USP9X, respectively. Ubiquitin-rhodamine110 was used as the substrate and ubiquitin aldehyde was included in the assay as a positive control.
Purified recombinant USPx9 (R&D Systems) in 50 mM Tris buffer pH 7.5, 1 mM DTT, 100 mM NaCl, 0.05% Tween 20 and 0/1% BSA is used at a concentration of 0.325 nM with 0.5 μM ubiquitin-rhodamine (R&D Systems).

Take `CN1CCOc2ccc(cc2)C(=O)NCc2ccc(F)c(c2)C(=O)N[C@@H](CC(C)(C)C)C(=O)Nc2ccc(cc2)CCN(C)C(=O)CCC(C)(C)CCC1=O` [Compound 1A, (S)-5^4-fluoro-14,18,18,22-tetramethyl-S-neopentyl-25-oxa-3,7,10,14,22-pentaaza-1,11(1,4),5(1,3)-tribenzenacyclopentacosaphane-2,6,9,15,21-pentaone]: the “effect on USP9X activity” value (ubiquitin-rhodamine110 substrate) is given as “partially inhibited”.
For `CNCCOc1ccc(C(=O)NCc2cccc(C(=O)N[C@@H](CC(C)(C)C)C(=O)Nc3ccc(CC(NC(=O)CC(C)(C)CC(=O)O)C(=O)OC)cc3)c2)cc1` (stereo partly shown) [Compound 1], the IC50 is 530 nM.
Take `CNCCOc1ccc(C(=O)NCc2cccc(C(=O)N[C@@H](CC(C)(C)C)C(=O)Nc3ccc(CCNC(=O)CC(C)(C)CC(=O)O)cc3)c2)cc1` [Compound 2]: the IC50 worked out at 180 nM.
Take `COCCNC(=O)[C@@H]1Cc2ccc(cc2)NC(=O)[C@H](CC(C)(C)C)NC(=O)c2cccc(c2)CNC(=O)c2ccc(cc2)OCCNC(=O)CC(C)(C)CC(=O)N1` [Compound 3A]: the “reduction of USP9X activity” value is recorded as “approximately 60%”.
`CNCCOc1ccc(C(=O)NCc2cccc(C(=O)N[C@@H](CC(C)(C)C)C(=O)Nc3ccc(CCC(=O)O)cc3)c2)cc1` [Compound 3]: the IC50 was determined as 280 nM.
With `CC(C)(C)C[C@@H]1NC(=O)c2cccc(c2)CNC(=O)c2ccc(cc2)OCCNC(=O)CCCCC(=O)N[C@H](C(=O)O)Cc2ccc(cc2)NC1=O` [Compound 4A], the “reduction of USP9X activity” value was “approximately 60%”.
For `CNCCOc1ccc(C(=O)NCc2cccc(C(=O)N[C@@H](CC(C)(C)C)C(=O)Nc3ccc(CN4CCCC4)cc3)c2)cc1` [Compound 4], the IC50 was found to be 54 nM.
The same measure, in the same setting: under `CN(C)CCOc1ccc(C(=O)NCc2cccc(C(=O)N[C@@H](CC(C)(C)C)C(=O)Nc3ccc(CN4CCCC4)cc3)c2)cc1` [Compound 5] stands 55 nM; under `CNCCOc1ccc(C(=O)NCc2cccc(C(=O)N[C@@H](CC(C)(C)C)C(=O)Nc3ccc(CCc4ccccn4)cc3)c2)cc1` [Compound 6], 700 nM.
As for `CN(C)CCOc1ccc(C(=O)NCc2cccc(C(=O)N[C@@H](CC(C)(C)C)C(=O)Nc3ccc(CCc4ccccn4)cc3)c2)cc1` [Compound 7], the IC50 was determined as 590 nM.
`CNCCOc1ccc(C(=O)NCc2cccc(C(=O)N[C@@H](CC(C)(C)C)C(=O)Nc3cccc(Cn4cccn4)c3)c2)cc1` [Compound 8]: the IC50 was 1100 nM.
The same measure, in the same setting: for `CN(C)CCOc1ccc(C(=O)NCc2cccc(C(=O)N[C@@H](CC(C)(C)C)C(=O)Nc3cccc(Cn4cccn4)c3)c2)cc1` [Compound 9] the value was 150 nM; for `CNCCOc1ccc(C(=O)NCc2cccc(C(=O)N[C@@H](CC(C)(C)C)C(=O)Nc3ccc(Cn4ccnc4)cc3)c2)cc1` [Compound 10], 91 nM.
Still for that read-out and setting: for `CN(C)CCOc1ccc(C(=O)NCc2cccc(C(=O)N[C@@H](CC(C)(C)C)C(=O)Nc3ccc(Cn4ccnc4)cc3)c2)cc1` [Compound 11] the value was 80 nM.
Same read-out and setting: under `CNCCOc1ccc(C(=O)NCc2cccc(C(=O)N[C@@H](CC(C)(C)C)C(=O)Nc3ccc(CC(F)(F)F)cc3)c2)cc1` [Compound 12] stands 1300 nM; under `CN(C)CCOc1ccc(C(=O)NCc2cccc(C(=O)N[C@@H](CC(C)(C)C)C(=O)Nc3ccc(CCN(C)C)cc3)c2)cc1` [Compound 13], 44 nM.
Turning to `CN(C)CCOc1ccc(C(=O)NCc2cccc(C(=O)N[C@@H](CC(C)(C)C)C(=O)Nc3ccc(CCN4CCOCC4)cc3)c2)cc1` [Compound 14], the IC50 was determined as 120 nM.
On the same count and under the same terms, for `CN(C)CCNC(=O)[C@H](CC(C)(C)C)NC(=O)c1cccc(CNC(=O)c2ccc(OCCN(C)C)cc2)c1` [Compound 15] the value was 23000 nM; for `CN(C)CCCNC(=O)[C@H](CC(C)(C)C)NC(=O)c1cccc(CNC(=O)c2ccc(OCCN(C)C)cc2)c1` [Compound 16], 18000 nM.
As to `CN(C)CCOc1ccc(C(=O)NCc2cccc(C(=O)N[C@@H](CC(C)(C)C)C(=O)NCCN3CCCC3)c2)cc1` [Compound 19], the IC50 was determined as 8000 nM.
Still for that read-out and setting: under `CN(C)CCOc1ccc(C(=O)NCc2cccc(C(=O)N[C@@H](CC(C)(C)C)C(=O)Nc3ccc4nccn4c3)c2)cc1` [Compound 20] stands 63 nM; under `Cc1ccc(NC(=O)[C@H](CC(C)(C)C)NC(=O)c2cccc(CNC(=O)c3ccc(OCCN(C)C)cc3)c2)cc1` [Compound 22], 420 nM.
Still for that read-out and setting: under `COc1ccc(NC(=O)[C@H](CC(C)(C)C)NC(=O)c2cccc(CNC(=O)c3ccc(OCCN(C)C)cc3)c2)cc1` [Compound 23] stands 240 nM; under `COC(=O)c1cc(NC(=O)[C@H](CC(C)(C)C)NC(=O)c2cccc(CNC(=O)c3ccc(OCCN(C)C)cc3)c2)ccc1C` [Compound 24], 66 nM; under `COC(=O)c1cccc(NC(=O)[C@H](CC(C)(C)C)NC(=O)c2cccc(CNC(=O)c3ccc(OCCN(C)C)cc3)c2)c1` [Compound 25], 68 nM.
On to `CN(C)CCOc1ccc(C(=O)NCc2cccc(C(=O)N[C@@H](CC(C)(C)C)C(=O)N(C)Cc3ccccc3)c2)cc1` [Compound 26], for which the “USP9X IC50/UM” value is >50 UM.
On the same count and under the same terms, under `CN(C)CCOc1ccc(C(=O)NCc2cccc(C(=O)N[C@@H](CC(C)(C)C)C(=O)NCc3ccccc3F)c2)cc1` [Compound 27] stands >50 UM.
As to `CN(C)CCOc1ccc(C(=O)NCc2cccc(C(=O)N[C@@H](CC(C)(C)C)C(=O)NCc3ccccn3)c2)cc1` [Compound 28], the IC50 came to 32000 nM.
Consider `CNCCOc1ccc(C(=O)NCc2cccc(C(=O)N[C@@H](CC(C)(C)C)C(=O)Nc3ccc(CCC(=O)O)cc3)c2)cc1` [Compound 30], for which the “USP9X IC50/UM” value is recorded as >50 UM.
In the case of `CNCCOc1ccc(C(=O)NCc2cccc(C(=O)N[C@@H](CC(C)C)C(=O)Nc3ccc(CCC(=O)O)cc3)c2)cc1` [Compound 31], the IC50 is 6000 nM.
Take `CNCCOc1ccc(C(=O)NCc2cccc(C(=O)N[C@@H](CC(C)C)C(=O)Nc3ccc(CCC(=O)O)cc3)c2)cc1` [Compound 32]: the “USP9X IC50/UM” value is >50 UM.
Turning to `CNCCOc1ccc(C(=O)NCc2cccc(C(=O)N[C@@H](C)C(=O)Nc3ccc(CCC(=O)O)cc3)c2)cc1` [Compound 33], the “USP9X IC50/UM” value is >50 UM.
Consider `CNCCOc1ccc(C(=O)NCc2cccc(C(=O)N3CCCC3C(=O)Nc3ccc(CCC(=O)O)cc3)c2)cc1` (stereo not shown) [Compound 35], for which the IC50 turned out to be 7000 nM.
As for `CNCCOc1ccc(C(=O)NCc2cccc(C(=O)N3CCCC3C(=O)Nc3ccc(CCC(=O)O)cc3)c2)cc1` (stereo not shown) [Compound 36], the “USP9X IC50/UM” value is on record as >50 UM.
The same measure, in the same setting: for `CNCCOc1ccc(C(=O)NCc2cccc(C(=O)N[C@@H](CC3CCCCC3)C(=O)Nc3ccc(CCC(=O)O)cc3)c2)cc1` [Compound 37] the value was >50 UM.
For `CNC(=O)CCc1ccc(NC(=O)[C@H](CC(C)(C)C)NC(=O)c2cc(CNC(=O)c3ccc(OCCN(C)C)cc3)ccc2F)cc1` [Compound 41], the IC50 amounted to 90 nM.
Still for that read-out and setting: for `CNC(=O)CCc1ccc(NC(=O)[C@H](CC(C)(C)C)NC(=O)c2cccc(CNC(=O)c3ccc(OC)cc3)c2)cc1` [Compound 42] the value was 1300 nM.
Still for that read-out and setting: for `CNC(=O)CCc1ccc(NC(=O)[C@H](CC(C)(C)C)NC(=O)c2cc(CNC(=O)c3ccc(OC)cc3)ccc2F)cc1` [Compound 43] the value was 760 nM.
Still for that read-out and setting: under `COc1ccc(C(=O)NCc2cccc(C(=O)N[C@@H](CC(C)(C)C)C(=O)Nc3ccc(CCN(C)C)cc3)c2)cc1` [Compound 44] stands 240 nM.
As for `CNC(=O)CCc1ccc(NC(=O)[C@H](CC(C)(C)C)NC(=O)c2cccc(CNC(=O)c3ccccc3)c2)cc1` [Compound 45], the IC50 was determined as 2100 nM.
On the same count and under the same terms, for `CN(C)CCc1ccc(NC(=O)[C@H](CC(C)(C)C)NC(=O)c2cccc(CNC(=O)c3ccccc3)c2)cc1` [Compound 47] the value was 320 nM; for `CNC(=O)CCc1ccc(NC(=O)[C@H](CC(C)(C)C)NC(=O)c2cccc(CNC(C)=O)c2)cc1` [Compound 48], 8900 nM.
Consider `CNC(=O)CCc1ccc(NC(=O)[C@H](CC(C)(C)C)NC(=O)c2cc(CNC(C)=O)ccc2F)cc1` [Compound 49], for which the IC50 was found to be 5000 nM.
Regarding `CC(=O)NCc1cccc(C(=O)N[C@@H](CC(C)(C)C)C(=O)Nc2ccc(CCN(C)C)cc2)c1` [Compound 50], the IC50 was 2300 nM.
`CNCCOc1ccc(C(=O)NCc2ccc(F)c(C(=O)N[C@@H](CC(C)(C)C)C(=O)Nc3ccc(CCC(=O)O)cc3)c2)cc1` [Compound 53]: the IC50 was found to be 360 nM.
`COc1ccc(C(=O)NCc2cccc(C(=O)N[C@@H](CC(C)(C)C)C(=O)Nc3ccc(CCC(=O)O)cc3)c2)cc1` [Compound 55]: the IC50 turned out to be 4700 nM.
For `CC(C)(C)C[C@H](NC(=O)c1cccc(CNC(=O)c2ccccc2)c1)C(=O)Nc1ccc(CCC(=O)O)cc1` [Compound 57], the IC50 is 7000 nM.
On the same count and under the same terms, under `CC(C)(C)C[C@H](NC(=O)c1cc(CNC(=O)c2ccccc2)ccc1F)C(=O)Nc1ccc(CCC(=O)O)cc1` [Compound 58] stands 4900 nM; under `CC(=O)NCc1ccc(F)c(C(=O)N[C@@H](CC(C)(C)C)C(=O)Nc2ccc(CCC(=O)O)cc2)c1` [Compound 60], 13000 nM.
Still for that read-out and setting: for `CC(C)(C)C[C@H](NC(=O)c1cccc(CNC(=O)c2ccc(OCCO)cc2)c1)C(=O)Nc1ccccc1` [Compound 61] the value was 5800 nM; for `Cc1ccc(NC(=O)[C@H](CC(C)(C)C)NC(=O)c2cccc(CNC(=O)c3ccc(OCCO)cc3)c2)cc1` [Compound 62], 6900 nM.
Still for that read-out and setting: for `CC(C)(C)C[C@H](NC(=O)c1cccc(CNC(=O)c2ccc(OCCO)cc2)c1)C(=O)Nc1ccc(CCN)cc1` [Compound 63] the value was 220 nM; for `CC(=O)NCCc1ccc(NC(=O)[C@H](CC(C)(C)C)NC(=O)c2cccc(CNC(=O)c3ccc(OCCO)cc3)c2)cc1` [Compound 64], 650 nM.
As to `CC(C)(C)CC(=O)NCCc1ccc(NC(=O)[C@H](CC(C)(C)C)NC(=O)c2cccc(CNC(=O)c3ccc(OCCO)cc3)c2)cc1` [Compound 65], the IC50 stood at 600 nM.
On to `CC(C)(C)C[C@H](NC(=O)c1cccc(CNC(=O)c2ccc(OCCNC(=O)CC(C)(C)CC(=O)NCCc3ccc(N)cc3)cc2)c1)C(=O)O` [Compound 66], for which the “USP9X IC50/UM” value is reported as >50 UM.
